The values below come from patent publication EP0351921A2, “Modified beta adrenergic receptor” (MERCK & CO. INC., priority 1988, dated 1990).

Each structure is given as a SMILES string.

The target in one experiment is [Glu¹¹³]βAR (Mesocricetus auratus, UniProt P04274, D113E). Kind of experiment: Adenylyl cyclase stimulation in membranes of cell lines expressing the receptor. Conditions: for %NaF: (Glu^113)βAR, percentage of maximal stimulation by 10 mM NaF, Table 3.
Experiment [1] addresses wild-type βAR ([Asp113]βAR) (Mesocricetus auratus, UniProt P04274). The experiment is described as above. Conditions: for %NaF: (Asp^113)βAR, percentage of maximal stimulation by 10 mM NaF, Table 3; for maximal adenylyl cyclase stimulation (% of NaF): [Asp113]βAR, maximally effective concentration of the compound, relative to 10 mM NaF, Table 1.
Another experiment has as its target T1, [Asn113]βAR (Mesocricetus auratus, UniProt P04274, D113N).
T1 construct: pSVBAC contains the full length hamster β₂AR cDNA cloned into the EcoRI site of pSVL; expressed in transfected cells; host or cells: mouse L cells (clonal lines; membranes)
Described as above. It counts as biochemical, hamster. Conditions: for maximal adenylyl cyclase stimulation (% of NaF): [Asn113]βAR, maximally effective concentration of the compound, relative to 10 mM NaF, Table 1.

For a further experiment, the target named is [His¹¹³]βAR (Mesocricetus auratus, UniProt P04274, D113H). To be noted: ligand concentrations as high as 1 mM.
Chain of [His¹¹³]βAR (P04274 whole entry D113H): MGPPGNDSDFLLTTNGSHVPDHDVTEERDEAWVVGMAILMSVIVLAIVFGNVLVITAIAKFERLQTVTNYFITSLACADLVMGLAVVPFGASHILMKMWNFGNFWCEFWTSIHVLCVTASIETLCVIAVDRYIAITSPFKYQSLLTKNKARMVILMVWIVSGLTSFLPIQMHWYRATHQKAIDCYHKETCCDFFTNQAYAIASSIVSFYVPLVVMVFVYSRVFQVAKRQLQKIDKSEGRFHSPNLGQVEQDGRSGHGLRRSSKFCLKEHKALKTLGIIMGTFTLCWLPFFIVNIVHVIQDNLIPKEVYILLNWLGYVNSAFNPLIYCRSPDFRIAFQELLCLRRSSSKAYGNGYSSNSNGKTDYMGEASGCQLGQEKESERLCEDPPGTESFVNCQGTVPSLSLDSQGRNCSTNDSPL
A further experiment deals with [Arg¹¹³]βAR (Mesocricetus auratus, UniProt P04274, D113R). To be noted: ligand concentrations as high as 1 mM.
Chain of [Arg¹¹³]βAR (P04274 whole entry D113R): as the sequence (P04274 whole entry D113H) above, with H113R counted along it
A further experiment deals with [LYS¹¹³]βAR (Mesocricetus auratus, UniProt P04274, D113K). Conditions: ligand concentrations as high as 1 mM.
Chain of [LYS¹¹³]βAR (P04274 whole entry D113K): as the sequence (P04274 whole entry D113H) above, with H113K counted along it
A further experiment deals with [Cys¹¹³]βAR (Mesocricetus auratus, UniProt P04274, D113C). Conditions: ligand concentrations as high as 1 mM.
Chain of [Cys¹¹³]βAR (P04274 whole entry D113C): as the sequence (P04274 whole entry D113H) above, with H113C counted along it
Where [2] appears, read: maximum concentration 10⁻⁴ M (*).
The mark [3] stands for this setting: maximum concentration 10⁻⁵ M (+).

Chain of wild-type βAR ([Asp113]βAR) (P04274 whole entry): as the sequence (P04274 whole entry D113H) above, with H113D counted along it
Chain of [Glu¹¹³]βAR (P04274 whole entry D113E): as the sequence (P04274 whole entry D113H) above, with H113E counted along it
T1 sequence (P04274 whole entry D113N): as the sequence (P04274 whole entry D113H) above, with H113N counted along it

For the molecule `CC(C)NCC(O)COc1cccc2[nH]ccc12` (stereo not drawn) [Compound 2, pindolol], the results for the “%NaF” value in experiment [Glu¹¹³]βAR (maximum concentration 10⁻³ M) and in experiment [1] (maximum concentration 10⁻³ M) were 35% and 0%, respectively.

For the molecule `Cc1ccc(OCC(O)CNC(C)C)c2c1CCC2` (stereo not drawn) [Compound 3, 3-(7-methylindan-4-yloxy) -1-isopropylamino-2-propanol], the entries for the “%NaF” value in experiment [Glu¹¹³]βAR (maximum concentration 10⁻³ M) and in experiment [1] (maximum concentration 10⁻³ M) were 6% and 0%, respectively.

`CC(C)NCC(O)COc1ccccc1` (stereo not drawn) [Compound 4, 3-phenoxy-1-isopropylamino-2-propanol]: the “%NaF” value in experiment [Glu¹¹³]βAR (maximum concentration 10⁻³ M) and in experiment [1] (maximum concentration 10⁻³ M) was 0% each time.

Take `CC(C)NCC(O)COc1ccc(-c2ncc[nH]2)cc1` (stereo not drawn) [Compound 5, 3-(4-(1-imidazol-2-yl)phenoxy)-1-isopropylamino-2-propanol]: the “%NaF” value in experiment [Glu¹¹³]βAR (maximum concentration 10⁻³ M) and in experiment [1] (maximum concentration 10⁻³ M) was 0% throughout.

Turning to `CC(C)NCC(O)COc1ccc(CC(N)=O)cc1` (stereo not drawn) [Compound 6, atenolol], the results for the “%NaF” value in experiment [Glu¹¹³]βAR (setting [2]) and in experiment [1] (setting [3]) were 0^* % and 0^+ %, respectively.

Take `COCCc1ccc(OCC(O)CNC(C)C)cc1` (stereo not drawn) [Compound 7, metoprolol]: the “%NaF” value in experiment [Glu¹¹³]βAR (setting [2]) is 2^* %; in experiment [1] (setting [3]) it was 0^+ %.

In the case of `CC(C)NCC(O)COc1ccc(COCCOC(C)C)cc1` (stereo not drawn) [Compound 8, bisopropol], the “%NaF” value is recorded as 0^* % in experiment [Glu¹¹³]βAR (setting [2]) and 0^+ % in experiment [1] (setting [3]).

Turning to `CC(C)NCC(O)COc1ccccc1N1CCOCC1` (stereo not drawn) [Compound 9, 3-o-morpholinophenoxy-1-isopropylamino-2-propanol], the “%NaF” value in experiment [Glu¹¹³]βAR (maximum concentration 10⁻³ M) and in experiment [1] (maximum concentration 10⁻³ M) was 0% throughout.

On to `N=C(N)NCC(O)c1ccc(O)c(O)c1` [L-612,158, 1-[2-(3,4-dihydroxyphenyl)-2-hydroxyethyl]guanidine], for which the “maximal adenylyl cyclase stimulation (% of NaF)” value in experiment [1] is 11%; in experiment [Asn113]βAR it was 50%. For the same molecule, in experiment [1] (versus isoproterenol), the “decrease in affinity of the interaction with the wild type βAR” value is reported as 1000 fold.

For `CC(C)NCC(O)c1ccc(O)c(O)c1` (stereo not drawn) [isoproterenol], the “decrease in affinity for the receptor” value in experiment [Glu¹¹³]βAR (substitution of Glu for Asp¹¹³, versus wild-type receptor) is recorded as 300 fold; in experiment [Asn113]βAR (substitution of Asn for Asp¹¹³, versus wild-type receptor), 5000 fold. The “stimulation of adenylyl cyclase” value in experiment [His¹¹³]βAR, in experiment [Arg¹¹³]βAR, in experiment [LYS¹¹³]βAR and in experiment [Cys¹¹³]βAR was “no stimulation” in each case. Further, the “maximal adenylyl cyclase stimulation (% of NaF)” value in experiment [1] and in experiment [Asn113]βAR was 100% in each case.
